What was measured:
[1] = system: PRMT5-mediated retention of exon 6 in the processed MDM4 mRNA in A375 tumor cells; experiment: Mouse A375 Xenograft Tumor MDM4 Exon5/6 RNA Splicing Assay; format: in vivo; conditions: A-375, PO given QD or BID, tumors 4 hr after last dose, 4 days of dosing, read-out: dose achieving 50% effect (ED50)
Experimental: The purpose of this assay is to measure the ability of a test compound to inhibit PRMT5-mediated retention of exon 6 in the processed MDM4 mRNA in A375 tumor cells in a mouse tumor xenograft model. This assay represents the effect of a test compound on specific PRMT5-mediated splicing events in tumors in an animal model.
Grow A375 cells in medium (DMEM high glucose/10% Hi FBS) at 37° C. in an incubator (5% CO2) for 18-24 hr. Mix the cells with MATRIGEL® (1:1) and implant the cells (5×10^6/animal) subcutaneously into the rear flank of the mice (female nude mice, Harlan). The implanted tumor cells grow as solid tumors. Measure the tumor volume and body weight twice a week with a caliper. After tumor volume reaches approximately 200-250 mm^3 (about 20 days after implant), randomize the animals, and group them into compound treatment groups. Administer the test compounds (formulated in SWFI with 1% HEC/0.25% TWEEN® 80/0.05% Antifoam) by oral gavage. Test compound doses are in the range of 3 to 100 mg/kg. Sacrifice mice 4 hr after the last dose (4 days of dosing).
Harvest tumor tissues and homogenize as described below. Place tumor samples in a bowl and add 1 mL of liquid N2. Squash the tumor in the bowl. Transfer small pieces of tumor (about 20 mg each) into 2 lysing matrix D tubes (MPBIO cat. #6913-250). Use one tube for RNA processing and the other for protein lysate preparation. For RNA processing, homogenize the tumor tissues in an RNEASY® Mini Kit (QIAGEN-74104) extraction buffer (0.5 mL each) for 30 seconds using a Bio101 FastPrep FP120 homogenizer (setting 6). Total RNA is purified with QUARTZY® RNEASY® Mini Kit −50 (QIAGEN-74104, RNEASY® Mini Handbook, Fourth Edition, June 2012). Check the RNA concentration to ensure OD 260/280 […]≧1.9. For cDNA synthesis use A&B APPLIED BIOSYSTEMS®, High Capacity cDNA Reverse Transcription Kit (cat. #4368813). Use 1 μg total RNA (10 μL) in each RT reaction volume of 20 μL, containing 10×RT Buffer—2.0 μL; 25×dNTP Mix (100 mM)—0.8 μL; 10×RT Random Primers—2.0 μL; MULTISCRIBE™ Reverse Transcriptase—1.0 μL; Nuclease-free H2O—[…]. […]

[2] = system: Namalwa (Burkitt's lymphoma) cells; experiment: Xenograft tumor model, lymphoma (Namalwa); format: in vivo, mouse; conditions: oral gavage
Experimental: (§1) The purpose of this assay is to measure in a mouse model of cancer the reduction in tumor volume in response to test compound administration.
(§2) Grow A375 (melanoma) cells in DMEM/High glucose (HYCLONE™ cat. # SH30022) with 10% HI FBS (GIBCO® cat. #10082-147). Grow Will-2 (DLBCL) cells in RPMI 1640 with L-glutamine and 20% heat inactivated FBS. Grow Namalwa (Burkitt's lymphoma) cells (ATCC) in RPMI 1640 media supplemented with L-glutamine, 25 mM HEPES (GIBCO® 22400-089), 1 mM sodium pyruvate and 7.5% FBS. Grow Molt 4 cells in RPMI 1640 with L-glutamine, 25 mM HEPES [GIBCO 22400-089], 1 mM sodium pyruvate, and 10% FBS. Harvest cells and inject subcutaneously onto the rear flank of nude mice (A375: 5×10^6 cells/animal, mixed 1:1 with MATRIGEL®; Will-2; 1×10^7 cells/animal; Namalwa: 2×10^6 cells/animal; Molt 4: : 5×10^6 cells/animal, mixed 1:1 with MATRIGEL®). When tumors are established (approximately 200 mm^3, 7-21 days after implant), randomize animals, and group them into control and test groups. Formulate the test compound in 1% HEC/0.25% TWEEN®-80/0.05% Antifoam. Administer test compound and vehicles by oral gavage. Determine tumor response by tumor volume measurement (caliper) performed twice a week during the course of treatment and report as the percent inhibition of tumor volume versus the vehicle control group.

Will-2 (DLBCL) cells = experiment: Xenograft tumor model, DLBCL (WILL-2); format: in vivo, mouse; conditions: oral gavage
Experimental: as §1, §2

SMILES	ED50 [1] [mg/kg]	percent inhibition of tumor volume versus vehicle ([2]; 2 mg/kg BID for 14 days) [%]	percent inhibition of tumor volume versus vehicle ([2]; 5 mg/kg QD for 14 days) [%]	tumor regression (Will-2 (DLBCL) cells; 2 mg/kg BID for 14 days) [%]	percent inhibition of tumor volume versus vehicle (Will-2 (DLBCL) cells; 5 mg/kg QD for 14 days) [%]
Nc1ncnc2c1ccn2[C@@H]1O[C@H]([C@H](O)c2ccc(Cl)cc2)[C@@H](O)[C@H]1O [Example 1, (2R,3R,4S,5R)-2-(4-Aminopyrrolo[2,3-d]pyrimidin-7-yl)-5-[(R)-(4-chlorophenyl)-hydroxy-methyl]tetrahydrofuran-3,4-diol]	≤ 30	74	61	50	74
Nc1ncnc2c1ccn2[C@@H]1O[C@H]([C@H](O)c2ccccc2)[C@@H](O)[C@H]1O [Example 2, (2R,3R,4S,5R)-2-(4-Aminopyrrolo[2,3-d]pyrimidin-7-yl)-5[(R)-hydroxy(phenyl)methyl]tetrahydrofuran-3,4-diol]	≤ 30	–	–	–	–
C[C@@](O)(c1ccc(Cl)cc1)[C@H]1O[C@@H](n2ccc3c(N)ncnc32)[C@H](O)[C@@H]1O [Example 3, (2R,3R,4S,5S)-2-(4-Aminopyrrolo[2,3-d]pyrimidin-7-yl)-5-[(1R)-1-(4-chlorophenyl)-1-hydroxy-ethyl]tetrahydrofuran-3,4-diol]	≤ 30	–	–	–	–

— patent publication US9840532B2, “5′-substituted nucleoside compounds” (Eli Lilly and Company, priority 2015, dated 2017)
